Reference: US5212166A, “Unsaturated 17β-subsituted 3-carboxy steroids” (Farmitalia Carlo Erba S.r.l., priority 1991, dated 1993)

Molecular target: T1, human prostatic 5α-reductase (Homo sapiens, UniProt P31213)
T1 construct: from homogenates of human benign prostatic hypertrophyc tissue as the enzyme source; from tissue; host or cells: human benign prostatic hypertrophic tissue, particulate fraction (nuclei, microsomes and mitochondria)
T1 sequence (P31213 1-254): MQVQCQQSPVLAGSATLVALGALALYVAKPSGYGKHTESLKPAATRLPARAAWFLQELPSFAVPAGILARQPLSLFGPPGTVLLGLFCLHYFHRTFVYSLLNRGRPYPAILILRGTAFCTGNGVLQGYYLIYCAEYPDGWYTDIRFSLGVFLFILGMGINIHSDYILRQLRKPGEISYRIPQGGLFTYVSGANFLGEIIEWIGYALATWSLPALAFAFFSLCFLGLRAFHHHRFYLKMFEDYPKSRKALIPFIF
Test: Inhibition of 5α-reductase in vitro, particulate fraction of human benign prostatic hypertrophic tissue homogenate
Assay type: biochemical
Conditions: 1 μM [4-14C]testosterone, 5 mM NADPH, pH 5.5, 30 min at 37° C., read-out: concentration producing 50% inhibition on human prostatic 5α-reductase (IC50)
Experimental: For example, the inhibitory effect of the compounds of the invention on 5α-reductase was determined in vitro, according to the test procedure reported herebelow.
Inhibition of 5α-reductase was evaluated using the particulate fraction (containing nuclei, microsomes and mitochondria) from homogenates of human benign prostatic hypertrophyc tissue as the enzyme source.
The particulate fraction was prepared centrifuging prostate homogenate at 140,000 × g.
The resulting pellet, washed several times, was resuspended in buffer and stored at -80° C. in aliquots containing 10 mg protein/ml.
The assay for 5α-reductase was done in a final volume of 0.5 ml, containing 1 mM dithiothreitol, 40 mM TRIS-HCl buffer pH 5.5, 5 mM NADPH, 1 μM [4-^14 C]testosterone, 0.3 mg protein of the prostate particulate fraction and various concentrations of the inhibitors. […] Radioactivity on the plate was scanned and analyzed from quantitative plots printed by a TLC-analizer (Berthold). The fractional 5α-reduction of testosterone was calculated by relating the ^14 C-radioactivity in the 5α-reduced metabolites 5α-dihydrotestosterone, 3α- and 3β-androstanediols) regions to the total radioactivity in the testosterone and 5α-reduced metabolites regions. […]

CC(C)NC(=O)N(C(=O)[C@H]1CC[C@H]2[C@@H]3CC=C4C=C(C(=O)O)CC[C@]4(C)[C@H]3CC[C@]12C)C(C)C [17β-[N-isopropyl-N-(N-isopropylcarbamoyl)carbamoyl]androsta-3,5-diene-3-carboxylic acid] gave an IC50 of 3 nM.
